Test results from article PMC2709467, “Synthesis of Novel 3-Aryl-N-Methyl-1,2,5,6-Tetrahydropyridine Derivatives by Suzuki coupling: As Acetyl Cholinesterase Inhibitors” (The Open Medicinal Chemistry Journal, 2007).

test system: T1, Human Serum AChE; test: Ellman assay, […] nm; format: biochemical; details: acetylthiocholine iodide substrate, phosphate buffer pH 8.0, 37 °C, 10 min preincubation
T1 construct: crude supernatant of citrated fresh blood (plasma), not purified

In order of falling IC50:
1. COc1ccc(C2=CCCN(C)C2)cc1 [5e, 3-(4-methoxyphenyl)-1,2,5,6-tetrahydro-1-methylpyridine]  2880 nM
2. CN1CCC=C(c2ccc(Oc3ccccc3)cc2)C1 [5g, 3-(4-phenoxyphenyl)-1,2,5,6-tetrahydro-1-methylpyridine]  1350 nM
3. CCOc1cccc(C2=CCCN(C)C2)c1 [5j, 3-(3-ethoxyphenyl)-1,2,5,6-tetrahydro-1-methylpyridine]  1220 nM
4. CN1CCC=C(c2ccc(Cl)cc2)C1 [5d, 3-(4-chlorophenyl)-1,2,5,6-tetrahydro-1-methylpyridine]  784 nM
5. CN1CCC=C(c2c(Cl)cccc2Cl)C1 [5f, 3-(2,6-dichlorophenyl)-1,2,5,6-tetrahydro-1-methylpyridine]  729 nM
6. CN1CCC=C(c2cccc(Cl)c2F)C1 [5k, 3-(3-chloro-2-fluoro-phenyl)-1-methyl-1,2,5,6-tetrahydropyridine]  170 nM
7. CN1CCC=C(c2ccc(-c3ccccc3)c(F)c2)C1 [5h, 3-(2-fluoro-biphenyl-4-yl)-1-methyl-1,2,5,6-tetrahydropyridine]  116 nM
8. CN1CCC=C(c2ccc(C#N)cc2)C1 [5b, 3-(4-cyanophenyl)-1,2,5,6-tetrahydro-1-methylpyridine]  68 nM
9. CN1CCC=C(c2ccc(C(F)(F)F)cc2)C1 [5a, 3-[4-(trifluoromethyl)phenyl]-1,2,5,6-tetrahydro-1-methylpyridine]  52 nM
10. CN(C)C(=O)Oc1cccc([N+](C)(C)C)c1 [Neostigmine, reference compound]  39.2 nM

molecular target: T2, Electric eel AChE (Electrophorus electricus, UniProt O42275); test: Ellman assay, […] nm; format: biochemical; details: acetylthiocholine iodide substrate, phosphate buffer pH 8.0, 37 °C, 10 min preincubation; read-out: Electric eel AChE, IC50 nM
T2 construct: native commercial enzyme from Sigma, no further details
T2 sequence (O42275 24-633): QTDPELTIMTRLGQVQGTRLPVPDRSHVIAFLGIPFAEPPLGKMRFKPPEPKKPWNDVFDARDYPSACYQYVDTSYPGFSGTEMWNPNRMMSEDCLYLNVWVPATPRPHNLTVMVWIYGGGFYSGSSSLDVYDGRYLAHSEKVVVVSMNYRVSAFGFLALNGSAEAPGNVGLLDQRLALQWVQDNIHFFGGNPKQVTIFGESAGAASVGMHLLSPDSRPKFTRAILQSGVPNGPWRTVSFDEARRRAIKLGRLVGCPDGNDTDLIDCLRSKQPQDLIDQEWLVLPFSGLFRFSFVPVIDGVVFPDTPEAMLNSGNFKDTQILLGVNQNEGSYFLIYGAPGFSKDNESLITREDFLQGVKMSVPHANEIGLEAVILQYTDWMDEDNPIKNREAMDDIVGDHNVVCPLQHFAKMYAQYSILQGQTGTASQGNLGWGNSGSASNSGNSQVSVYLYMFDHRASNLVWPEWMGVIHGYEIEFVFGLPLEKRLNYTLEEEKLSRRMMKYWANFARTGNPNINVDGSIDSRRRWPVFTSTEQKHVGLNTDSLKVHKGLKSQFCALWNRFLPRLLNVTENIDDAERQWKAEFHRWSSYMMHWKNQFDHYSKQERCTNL

In order of rising IC50:
1. CN1CCC=C(c2ccc(C(F)(F)F)cc2)C1 [5a, 3-[4-(trifluoromethyl)phenyl]-1,2,5,6-tetrahydro-1-methylpyridine]  49.5 nM
2. CN1CCC=C(c2ccc(C#N)cc2)C1 [5b, 3-(4-cyanophenyl)-1,2,5,6-tetrahydro-1-methylpyridine]  64 nM
3. CN1CCC=C(c2ccc(-c3ccccc3)c(F)c2)C1 [5h, 3-(2-fluoro-biphenyl-4-yl)-1-methyl-1,2,5,6-tetrahydropyridine]  118 nM
4. CN1CCC=C(c2cccc(Cl)c2F)C1 [5k, 3-(3-chloro-2-fluoro-phenyl)-1-methyl-1,2,5,6-tetrahydropyridine]  182 nM
5. CN1CCC=C(c2c(Cl)cccc2Cl)C1 [5f, 3-(2,6-dichlorophenyl)-1,2,5,6-tetrahydro-1-methylpyridine]  678 nM
6. CN1CCC=C(c2ccc(Cl)cc2)C1 [5d, 3-(4-chlorophenyl)-1,2,5,6-tetrahydro-1-methylpyridine]  806 nM
7. CN1CCC=C(c2ccc(Oc3ccccc3)cc2)C1 [5g, 3-(4-phenoxyphenyl)-1,2,5,6-tetrahydro-1-methylpyridine]  1230 nM
8. CCOc1cccc(C2=CCCN(C)C2)c1 [5j, 3-(3-ethoxyphenyl)-1,2,5,6-tetrahydro-1-methylpyridine]  1230 nM

same assay, conditions: read-out: Electric eel AChE, IC50 nM; acetylthiocholine iodide substrate, phosphate buffer pH 8.0, 37 °C, 10 min preincubation

Work on `CN(C)C(=O)Oc1cccc([N+](C)(C)C)c1` [Neostigmine, reference compound] yielded an IC50 of 36.5 nM.
